Test results taken from PMC9649909, “Wnt-pathway inhibitors with selective activity against triple-negative breast cancer: From thienopyrimidine to quinazoline inhibitors” (Frontiers in Pharmacology, 2022).
“Also recorded” adds a separate entry of the source. Like-named read-outs stand apart in the source and are kept apart here. Blank lines part the entries; values can stand above or below the compound they belong to.

Experiments:
HCC1395 cells = test: in vitro
in vitro = settings: human
[1] = system: MDA-MB-468 TNBC cell line; test: MTT survival assay MDA-MB-468; type: cell-based; settings: Homo sapiens, MDA-MB-468; Table S2
[2] = system: MDA-MB-231 TNBC cell line; test: MTT survival assay MDA-MB-231; type: cell-based; settings: Table S2; for IC50: Homo sapiens, MDA-MB-231, read-out: MTT MDA-MB-231 IC50
BT-20 TNBC cell line = test: MTT survival assay BT-20; type: cell-based; settings: Homo sapiens, BT-20
HCC1806 TNBC cell line = test: MTT survival assay HCC1806; type: cell-based; settings: Homo sapiens, HCC1806
[3] = system: non-cancerous breast epithelial cell line MCF10a; test: MTT survival assay MCF10a; type: cell-based; settings: for IC50: Homo sapiens, MCF-10A
[4] = system: β-catenin-dependent Wnt-pathway; test: TopFlash luciferase reporter assay, CHIR99021-stimulated, HCC1395; type: cell-based; settings: Homo sapiens, HCC1395, HCC1395, stimulation with CHIR99021 (GSK3β inhibitor); for Emax: read-out: HCC1395 TopFlash Efficacy; for IC50: read-out: HCC1395 TopFlash IC50
HCC1395 TNBC cell line = test: MTT survival assay HCC1395; type: cell-based; settings: Homo sapiens, HCC1395; Table S2; read-out: MTT HCC-1395 IC50
[5] = system: panel of luciferase reporters with basal activities in HCC1395 cells; test: Panel of other luciferase transcriptional reporters in HCC1395; type: cell-based; settings: HCC1395, 5 µM
Protocol: Compound 5d (IC50 = 0.6 µM, Table 2) was used as a representative to analyze the selectivity of the chemotype towards the Wnt-pathway, by profiling it against a panel of different transcriptional reporters with significant basal activities in HCC1395 cells (Figure 5). […] We thus conclude that the anti-proliferative effect of the compound is related exclusively to the suppressed Wnt signaling.

[6] = system: β-catenin-dependent Wnt-pathway; test: TopFlash luciferase reporter assay, Wnt3a-stimulated, HCC1395; type: cell-based; settings: Homo sapiens, stimulation with Wnt3a
Excerpt: The advantage of our platform lies in its ability to discriminate between inhibitors of the β-catenin-dependent Wnt signaling acting at upstream vs. downstream levels of the pathway, by stimulating the pathway at the different levels either with Wnt3a or with a GSK3β inhibitor, like CHIR99021 ([Shaw et al., 2019b]). Both stimulations abolish formation of the destruction complex, a multiprotein complex consisting of Axin, adenomatous polyposis coli (APC), glycogen synthase kinase three beta (GSK3β), and casein kinase one alpha (CK1α). Upon inactivation of the complex, β-catenin accumulates in the cytoplasm and translocates into the nucleus where it interacts with transcription factors. These downstream events are quantified by a Luciferase transcription-based readout assay (TopFlash assay).

[7] = Table S2, read-out: MTT BT-20 IC50
[8] = Table S2, read-out: MTT HCC1806 IC50
[9] = Table S2, read-out: MTT MCF10 IC50

IC50 [4]: 0.6 ± 0.33 µM
Compound: CC(Nc1ncnc2sccc12)c1ccc(Cl)cc1 (centres unmarked) [Compound 5d, N-(1-(4-chlorophenyl)ethyl)thieno[2,3-d]pyrimidin-4-amine]
HCC1395 Cytotoxicity Efficacy (HCC1395 cells; human): 100 ± 0% | IC50 (in vitro; HCC1395 Cytotoxicity IC50): 24 ± 4.98 µM | IC50 [1]: 1.67 µM | IC50 [2]: > 10 µM | MTT MDA-MB-231 Comments [2]: Inactive | IC50 (BT-20 TNBC cell line; Figure 3B heatmap, no activity up to maximal tested concentration, read-out: IC50, μM (BT20)): > 50 µM | IC50 (BT-20 TNBC cell line; [7]): 6.89 µM | IC50 (HCC1806 TNBC cell line; Figure 3B heatmap, read-out: IC50, μM (HCC1806)): > 50 µM | IC50 (HCC1806 TNBC cell line; [8]): 9.12 µM | IC50 ([3]; Figure 3B heatmap, read-out: IC50, μM (MCF10)): > 10 µM | IC50 [3, 9]: 6.48 µM | Emax [4]: 55.4 ± 24.3% | IC50 (HCC1395 TNBC cell line): 0.39 µM | inhibition of other signaling pathway reporters [5]: none other signaling pathways are affected; also recorded: no inhibition

Compound: c1ccc(CNc2ncnc3sccc23)cc1 [Compound 4a, N-benzylthieno[2,3-d]pyrimidin-4-amine]
Cytotoxicity (Renilla) in words (HCC1395 cells; HCC1395): not toxic; also recorded: no cytotoxic activity | GSK HCC1395 Renilla Comments (HCC1395 cells; Table S2): Non-toxic | IC50 (in vitro): > 50 µM | IC50 [1]: 2.13 µM | IC50 [2]: 19.2 µM | MTT MDA-MB-231 plateau [2]: 100 | IC50 (BT-20 TNBC cell line; [7]): 16.3 µM | IC50 (HCC1806 TNBC cell line; [8]): 2.33 µM | IC50 [3, 9]: > 10 µM | MTT MCF10 Comments ([3]; Table S2): Inactive | Emax [4]: 72% | IC50 [4]: 8.47 µM | IC50 (HCC1395 TNBC cell line): 2.52 µM | IC50 [6]: 8.31 µM
